Consider two compounds from patent publication US11598701B1, “Method and system for lysing a liquid sample with augmented oxidizing agents to create a solution with a reduced microbial concentration and precipitate formation” (BIS SCIENCE LLC, priority 2021, dated 2023).

The assay relates to S. aureus ATCC 6538. Briefly: Antimicrobial suspension test of H2O2 with and without photon activation. Format: cell-based. The following applies: contact time 5 minutes; for Average CFU/ML: average of replicates; for CFU/ML: single replicate.

SMILES strings stand for the structures. Several values for one entry are separate records, joined by “and”; a condition that tells them apart may be missing. Identical values can stand only once.

For the compound `OO` [1 ppm H2O2 no photon activation, H2O2], the “% reduction Compared to controls” value is “No reduction”, the “LOG 10 Reduction compared to controls” value is “No reduction”, the “Average CFU/ML” value turned out to be 4.05E+06 CFU/ML and the CFU/ML is 4.10E+06 CFU/ML. Further, the CFU/ML (listed as l ppm H2O2 no photon activation) is reported as 4.10E+06 CFU/ML.
For `OO` [.3% H2O2 no photon activation, H2O2], the “% reduction Compared to controls” value is “No reduction”; the “LOG 10 Reduction compared to controls” value is “No reduction”; the “Average CFU/ML” value worked out at 4.05E+06 CFU/ML; the CFU/ML is 4.10E+06 CFU/ML and 4.00E+06 CFU/ML.
